B1: Pfu Y7A/V93K: modified Pfu DNA polymerase with Y7A and V93K (protein, UniProt P61875 1-775, looked up, variant Y7A V93K)
DNA polymerase: MILDVDAITEEGKPVIRLFKKENGKFKIEHDRTFRPYIYALLRDDSKIEEVKKITGERHGKIVRIVDVEKVEKKFLGKPITVWKLYLEHPQDKPTIREKVREHPAVVDIFEYDIPFAKRYLIDKGLIPMEGEEELKILAFDIETLYHEGEEFGKGPIIMISYADENEAKVITWKNIDLPYVEVVSSEREMIKRFLRIIREKDPDIIVTYNGDSFDFPYLAKRAEKLGIKLTIGRDGSEPKMQRIGDMTAVEVKGRIHFDLYHVITRTINLPTYTLEAVYEAIFGKPKEKVYADEIAKAWESGENLERVAKYSMEDAKATYELGKEFLPMEIQLSRLVGQPLWDVSRSSTGNLVEWFLLRKAYERNEVAPNKPSEEEYQRRLRESYTGGFVKEPEKGLWENIVYLDFRALYPSIIITHNVSPDTLNLEGCKNYDIAPQVGHKFCKDIPGFIPSLLGHLLEERQKIKTKMKETQDPIEKILLDYRQKAIKLLANSFYGYYGYAKARWYCKECAESVTAWGRKYIELVWKELEEKFGFKVLYIDTDGLYATIPGGESEEIKKKALEFVKYINSKLPGLLELEYEGFYKRGFFVTKKRYAVIDEEGKVITRGLEIVRRDWSEIAKETQARVLETILKHGDVEEAVRIVKEVIQKLANYEIPPEKLAIYEQITRPLHEYKAIGPHVAVAKKLAAKGVKIKPGMVIGYIVLRGDGPISNRAILAEEYDPKKHKYDAEYYIENQVLPAVLRILEGFGYRKEDLRYQKTRQVGLTSWLNIKKS

What was measured:
Type in all cases: biochemical
[1] = test system: bisulfite-treated human genomic DNA (MINT1, RAR, THBS1, MINT31); assay: PCR amplification of bisulfite-treated DNA; conditions: 40 cycles (FIG. 12)
Procedure: (§1) Using bisulfite-treated DNA as a template and various primers, the difference in PCR amplification was compared. For comparison, KOD mutant (Y7A/V93K) and KOD (wild-type), each mixed with 1 μg of a KOD antibody per U of the enzyme, and Taq DNA polymerase mixed with an antibody (a mixture of equal amounts of Taq DNA polymerase (produced by Toyobo Co. Ltd.) and Anti-Taq High (produced by Toyobo Co. Ltd.)) were used.
The bisulfite-treated DNA used was human genomic DNA (produced by Roche) that had been treated with a MethylCode Bisulfite Conversion Kit of Invitrogen.
For PCR with the KOD mutant (Y7A/V93K) and PCR with the KOD, a buffer, MgSO4, and dNTPs included in KOD-Plus-Ver. 2 (produced by Toyobo Co. Ltd.) were used. 50 μl of individual reaction solutions containing 1× PCR buffer, 1.5 mM MgSO4, dNTPs (dATP, dTTP, dCTP, dGTP) in an amount of 0.2 mM, primers (SEQ ID NOs: 42 and 43 for amplification of MINT1; SEQ ID NOs: 44 and 45for amplification of RAR; SEQ ID NOs: 46 and 47 for amplification of THBS1; SEQ ID NOs: 48 and 49 for amplification of MINT31) in an amount of 15 pmol, 1 μl of bisulfite-treated DNA extract, and 1 U of each respective enzyme mixed with the antibody were used. PCR was performed using a GeneAmp PCR system 9700 (Applied Biosystems) on the following schedule: preliminary reaction at 94° C. for 2 minutes, followed by 40 cycles, each cycle consisting of 98° C. for 10 seconds, 55° C. for 15 seconds, and 68° C. for 1 minute.
For PCR with the Taq DNA polymerase, 50 μl of a reaction solution containing 1× buffer included in Blend Taq (product of Toyobo), dNTPs (dATP, […], dCTP, dGTP) in an amount of 0.2 mM, primers in an amount of 15 pmol (the same as above), 1 μl of bisulfite-treated DNA extract, and 2.5 U of the enzyme mixed with the antibody was used. […]
(§2) After the completion of each individual reaction, each of the resulting reaction solutions was analyzed using a DNA-1000 kit for MultiNA (produced by Shimadzu Corporation) to confirm amplified DNA fragments.

[2] = test system: 1.3 kbp, 2.8 kbp, and 3.6 kbp of human β-globin; assay: Amplification of long-chain DNA in PCR using dUTP; conditions: 1.3, 2.8, 3.6 kbp; 100% dUTP (FIGS. 9 and 10)
Procedure: Amplification of 1.3 kbp, 2.8 kbp, and 3.6 kbp of human β-globin in PCR using dUTP was compared. For amplification, each enzyme was used after being mixed with 1 μg of a KOD antibody per U of the enzyme. For PCR, components included in KOD-Plus-Ver. 2 (produced by Toyobo Co. Ltd.) were used. 50 μl of individual reaction solutions containing 1× PCR buffer, 1.5 mM MgSO4, dNTPs (dATP, dUTP, dCTP, dGTP) in an amount of 2 mM in which dTTP was replaced by dUTP, primers in an amount of 15 pmol (SEQ ID NOs: 25 and 26 for amplification of 1.3 kbp; SEQ ID NOs: 26 and 29 for amplification of 2.8 kbp; SEQ ID NOs: 30 and 31 for amplification of 3.6 kbp), 10 ng of human genomic DNA (produced by Roche), and 1 U of each respective enzyme mixed with the antibody were used. PCR was performed using a GeneAmp PCR system 9700 (Applied Biosystems) on the following schedule: preliminary reaction at 94° C. for 2 minutes, followed by 35 cycles, each cycle consisting of 98° C. for 10 seconds, 65° C. for 30 seconds, and 68° C. for about 1 minute per kbp (1 minute and 30 seconds for amplification of 1.3 kbp; 3 minutes for amplification of 2.8 kbp; 4 minutes for amplification of 3.6 kbp). As a control, amplification was also performed using Taq DNA polymerase. Taq DNA polymerase produced by Toyobo Co. Ltd. mixed with Anti-Taq High (produced by Toyobo Co. Ltd.) was used. 50 μl of a reaction solution containing 1× buffer included in Blend Taq, dNTPs (dATP, dUTP, dCTP, dGTP) in an amount of 2 mM in which dTTP was replaced by dUTP, primers in an amount of 10 pmol the same as the above), 10 ng of human genomic DNA (produced by Roche), and 2.5 U of the enzyme mixed with the antibody was used. PCR was performed using a GeneAmp PCR system 9700 (produced by Applied Biosystems) on the following schedule: preliminary reaction at 94° C. for 2 minutes, followed by 35 cycles, each cycle consisting of 94° C. for 30 seconds, 65° C. for 30 seconds, and 68° C. for about 1 minute per kbp (1 minute and 30 seconds for amplification of 1.3 kbp; 3 minutes for amplification of 2.8 kbp; 4 minutes for amplification of 3.6 kbp). After the completion of each individual reaction, 5 μl of each of the resulting reaction solutions was subjected to agarose electrophoresis, followed by ethidium bromide staining, and the amount of amplified DNA fragments was confirmed under ultraviolet irradiation. FIGS. 9 and 10 show the results.

Psychrobacter DNA = assay: PCR amplification using inosine-containing primers
Procedure: as §1, with “inosine-containing” for “bisulfite-treated DNA as a template and various”, “mutants” for “mutant (Y7A/V93K)”
For PCR with the KOD mutants and PCR with the KOD, a buffer, MgSO4, and dNTPs included in KOD-Plus-Ver. 2 (produced by Toyobo Co. Ltd.) were used. 50 μl of individual reaction solutions containing 1× PCR buffer, 1.5 mM MgSO4, dNTPs (dATP, dTTP, dCTP, dGTP) in an amount of 0.2 mM, primers (SEQ ID NOs: 40 and 41) in an amount of 75 pmol or 150 pmol, 100 ng of Psychrobacter DNA, and 1 U of each respective enzyme mixed with the antibody were used. PCR was performed using a GeneAmp PCR system 9700 (Applied Biosystems) on the following schedule: preliminary reaction at 94° C. for 2 minutes, followed by 35 cycles, each cycle consisting of 98° C. for 10 seconds, 54° C. for 10 seconds, and 68° C. for 1 minute.
For PCR with the Taq DNA polymerase, 50 μl of a reaction solution containing 1× buffer included in Blend Taq (product of Toyobo), dNTPs (dATP, […], dCTP, dGTP) in an amount of 0.2 mM, primers in an amount of 75 pmol or 150 pmol (the same as above), 100 ng of Psychrobacter DNA, and 2.5 U of the enzyme mixed with the antibody was used. PCR was performed using a GeneAmp PCR system 9700 (Applied Biosystems) on the following schedule: preliminary reaction at 94° C. for 2 minutes, followed by 35 cycles, each cycle consisting of 94° C. for 30 seconds, 54° C. for 30 seconds, and 68° C. for 1 minute.
as §2

[3] = test system: 0.7 kbp of human β-globin amplified in PCR with dUTP; assay: Degradation with UNG of DNA amplified in the presence of dUTP; conditions: 37° C. for 10 minutes (FIG. 13)
Procedure: It was confirmed whether 0.7 kbp of human β-globin amplified using KOD mutant with reduced uracil sensitivity (N210D/Y7A/P36H) in PCR with dUTP was degraded by being reacted with UNG. For PCR, components included in KOD-Plus-Ver. 2 (produced by Toyobo Co. Ltd.) were used. 50 μl of a reaction solution containing 1× PCR buffer, 1.5 mM MgSO4, dNTPs (dATP, dUTP, dCTP, dGTP) in an amount of 2 mM in which dTTP was replaced by dUTP, primers (SEQ ID NOs: 50 and 51) in an amount of 15 pmol, 10 ng of human genomic DNA (produced by Roche), and 1 U of the enzyme mixed with an antibody was used. PCR was performed using a GeneAmp PCR system 9700 (Applied Biosystems) on the following schedule: preliminary reaction at 94° C. for 2 minutes, followed by 35 cycles, each cycle consisting of 98° C. for 10 seconds, 60° C. for 30 seconds, and 68° C. for 1 minute. The amplification products were diluted with the above-mentioned 1× PCR buffer to 10 ng/μl, 8 μl of the diluted amplification products was mixed with 2 μl of various concentrations of UNG (produced by Roche), and the mixtures were reacted at 37° C. for 10 minutes. After the completion of each individual reaction, each of the mixtures was analyzed using a DNA-1000 kit for MultiNA (produced by Shimadzu Corporation) to confirm the amount of amplification products.

Molecule	amplification of bisulfite-treated DNA [1]	amount of amplification of long-chain DNA with dUTP [2]	amount of inosine-containing primers at which amplification was observed (Psychrobacter DNA; 75 pmol or 150 pmol tested)	amplification with inosine-containing primers (Psychrobacter DNA; primers 75 pmol or 150 pmol, 35 cycles (FIG. 11))	degradation with UNG of DNA amplified with the polymerase in the presence of dUTP [3]
Taq DNA polymerase: Taq DNA polymerase produced by Toyobo Co. Ltd. mixed with Anti-Taq High, used as control [reference compound]	stable amplification was confirmed	cannot be amplified	150 pmol	stable amplification was confirmed	
B1		provided larger amounts of amplification			the DNA was degraded with UNG

Source: patent US20150218534A1, “MODIFIED DNA POLYMERASE” (TOYOBO CO., LTD., priority 2012, published 2015)
